Data as given in US20020164617A1, “Affinity selection-based screening of hydrophobic proteins” (NeoGenesis Pharmaceuticals, Inc., priority 2000, published 2002).
pKd: −log10 of the molar value.

Legend:
[1] = molecular target: T1, m2 mAChR-G∀i1∃1(2-GDP complex (Sus scrofa, UniProt P06199)); assay: 3H-NMS binding assay by the method of Rinken and Haga
T1 construct: made in house

m2 mAChR = molecular target: T2, m2 mAChR (Sus scrofa, UniProt P06199); assay: as above; conditions: m2 mAChR alone, without accessory protein; read-out: apparent Kd
T2 construct: made in house
T2 sequence (P06199 1-466): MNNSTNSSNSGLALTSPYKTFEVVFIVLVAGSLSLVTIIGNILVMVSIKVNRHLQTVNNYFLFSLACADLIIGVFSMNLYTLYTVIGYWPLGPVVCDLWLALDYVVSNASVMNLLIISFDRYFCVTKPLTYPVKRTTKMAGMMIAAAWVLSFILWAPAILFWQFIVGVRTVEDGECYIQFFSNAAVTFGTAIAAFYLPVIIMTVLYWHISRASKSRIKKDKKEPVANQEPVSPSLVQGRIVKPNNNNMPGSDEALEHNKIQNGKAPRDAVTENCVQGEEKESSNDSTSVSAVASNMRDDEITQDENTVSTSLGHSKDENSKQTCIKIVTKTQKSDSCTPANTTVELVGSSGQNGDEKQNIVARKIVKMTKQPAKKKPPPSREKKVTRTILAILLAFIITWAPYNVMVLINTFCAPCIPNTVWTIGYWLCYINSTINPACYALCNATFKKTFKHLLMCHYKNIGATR

T1 sequence (P63096 whole entry partner, one chain of several): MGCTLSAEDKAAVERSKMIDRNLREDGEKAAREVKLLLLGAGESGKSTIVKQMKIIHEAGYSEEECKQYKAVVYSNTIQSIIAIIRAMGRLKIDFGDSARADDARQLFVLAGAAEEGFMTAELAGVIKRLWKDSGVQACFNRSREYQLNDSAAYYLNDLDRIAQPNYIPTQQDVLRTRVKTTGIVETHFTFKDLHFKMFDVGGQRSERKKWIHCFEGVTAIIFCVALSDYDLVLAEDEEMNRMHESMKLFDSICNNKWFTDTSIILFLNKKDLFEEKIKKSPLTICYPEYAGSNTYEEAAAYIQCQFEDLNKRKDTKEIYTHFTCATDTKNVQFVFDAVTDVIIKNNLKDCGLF
T1 sequence (P62873 whole entry partner, one chain of several): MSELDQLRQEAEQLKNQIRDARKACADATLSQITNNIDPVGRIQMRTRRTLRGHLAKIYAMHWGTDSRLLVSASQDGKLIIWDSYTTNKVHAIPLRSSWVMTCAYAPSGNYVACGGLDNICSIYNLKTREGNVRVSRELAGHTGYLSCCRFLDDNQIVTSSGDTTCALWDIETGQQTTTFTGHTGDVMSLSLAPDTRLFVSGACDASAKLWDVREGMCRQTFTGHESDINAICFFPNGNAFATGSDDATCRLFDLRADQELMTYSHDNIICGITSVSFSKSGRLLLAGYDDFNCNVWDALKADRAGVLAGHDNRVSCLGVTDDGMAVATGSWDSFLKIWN
T1 sequence (P59768 2-68 partner limits assumed, one chain of several): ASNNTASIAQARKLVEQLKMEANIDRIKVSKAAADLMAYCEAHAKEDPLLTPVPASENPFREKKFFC

C[N+]1(C)[C@@H]2C[C@@H](OC(=O)[C@H](CO)c3ccccc3)C[C@H]1[C@@H]1O[C@@H]12 [3H-NMS, N-methylscapolamine]
pKd ([1]; m2 mAChR with G protein heterotrimer-GDP as accessory protein): 6.36
enhancement of affinity of m2 mAChR in presence of accessory protein complex ([1]; with vs without G∀i1∃1(2-GDP complex)): 5 fold
pKd (m2 mAChR): 9.77
